{
  "source": "ChEMBL document CHEMBL1139672",
  "about": "“1,2,3,4-Tetrahydroisoquinolinyl sulfamic acids as phosphatase PTP1B inhibitors” (Bioorg Med Chem Lett, 2006)",
  "key": {"[1]": {"target": "T1, Tyrosine-protein phosphatase non-receptor type 2 (Homo sapiens, UniProt P17706)", "T1 sequence (P17706 whole entry)": "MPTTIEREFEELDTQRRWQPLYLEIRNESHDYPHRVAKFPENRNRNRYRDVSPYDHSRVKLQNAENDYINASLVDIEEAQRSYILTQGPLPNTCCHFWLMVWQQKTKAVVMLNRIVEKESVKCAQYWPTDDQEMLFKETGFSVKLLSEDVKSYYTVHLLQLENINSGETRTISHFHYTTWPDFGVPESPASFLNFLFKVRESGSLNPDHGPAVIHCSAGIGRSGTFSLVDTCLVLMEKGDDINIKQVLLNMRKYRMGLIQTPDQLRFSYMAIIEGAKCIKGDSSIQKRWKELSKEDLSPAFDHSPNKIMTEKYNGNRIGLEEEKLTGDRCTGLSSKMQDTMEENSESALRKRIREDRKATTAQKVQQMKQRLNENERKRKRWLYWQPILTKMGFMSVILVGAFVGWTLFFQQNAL", "experiment": "Inhibition of TCPTP"}, "[2]": {"target": "Tyrosine-protein phosphatase non-receptor type 6 (Homo sapiens, UniProt P29350)", "sequence (P29350 whole entry)": "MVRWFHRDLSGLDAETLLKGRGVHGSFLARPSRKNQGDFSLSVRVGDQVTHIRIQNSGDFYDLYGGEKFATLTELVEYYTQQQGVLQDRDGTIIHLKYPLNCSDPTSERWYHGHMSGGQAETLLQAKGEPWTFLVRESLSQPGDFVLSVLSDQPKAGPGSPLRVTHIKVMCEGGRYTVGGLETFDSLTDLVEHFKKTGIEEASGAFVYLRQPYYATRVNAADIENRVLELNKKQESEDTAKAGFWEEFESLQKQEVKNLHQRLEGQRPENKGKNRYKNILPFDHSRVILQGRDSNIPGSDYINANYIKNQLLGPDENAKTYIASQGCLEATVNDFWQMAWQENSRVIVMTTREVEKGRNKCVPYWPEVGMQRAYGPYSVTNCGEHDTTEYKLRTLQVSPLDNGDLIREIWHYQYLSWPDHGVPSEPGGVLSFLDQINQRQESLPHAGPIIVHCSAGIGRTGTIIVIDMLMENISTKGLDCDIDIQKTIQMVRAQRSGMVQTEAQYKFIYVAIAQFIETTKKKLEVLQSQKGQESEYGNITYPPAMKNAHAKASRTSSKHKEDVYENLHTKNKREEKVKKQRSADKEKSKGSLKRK", "experiment": "Inhibition of SHP1"}, "[3]": {"target": "T2, Tyrosine-protein phosphatase non-receptor type 11 (Homo sapiens, UniProt Q06124)", "T2 sequence (Q06124 whole entry)": "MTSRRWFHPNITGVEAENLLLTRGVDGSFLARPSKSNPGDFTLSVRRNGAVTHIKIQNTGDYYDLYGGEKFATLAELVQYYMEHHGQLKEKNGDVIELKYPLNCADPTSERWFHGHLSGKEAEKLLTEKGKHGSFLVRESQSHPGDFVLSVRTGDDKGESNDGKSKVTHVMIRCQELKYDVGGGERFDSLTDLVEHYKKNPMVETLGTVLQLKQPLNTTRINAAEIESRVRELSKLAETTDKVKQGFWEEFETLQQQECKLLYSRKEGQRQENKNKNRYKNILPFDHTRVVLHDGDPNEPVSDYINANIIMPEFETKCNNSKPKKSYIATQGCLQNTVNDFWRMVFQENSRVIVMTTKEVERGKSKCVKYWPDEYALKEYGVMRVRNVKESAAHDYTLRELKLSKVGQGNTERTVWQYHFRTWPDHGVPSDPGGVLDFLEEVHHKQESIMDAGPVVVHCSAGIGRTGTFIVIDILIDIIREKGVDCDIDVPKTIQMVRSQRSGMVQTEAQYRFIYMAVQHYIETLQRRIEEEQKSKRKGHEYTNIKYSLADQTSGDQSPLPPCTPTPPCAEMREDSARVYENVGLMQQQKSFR", "experiment": "Inhibition of SHP2"}, "[4]": {"target": "Receptor-type tyrosine-protein phosphatase mu (Homo sapiens, UniProt P28827)", "sequence (P28827 whole entry)": "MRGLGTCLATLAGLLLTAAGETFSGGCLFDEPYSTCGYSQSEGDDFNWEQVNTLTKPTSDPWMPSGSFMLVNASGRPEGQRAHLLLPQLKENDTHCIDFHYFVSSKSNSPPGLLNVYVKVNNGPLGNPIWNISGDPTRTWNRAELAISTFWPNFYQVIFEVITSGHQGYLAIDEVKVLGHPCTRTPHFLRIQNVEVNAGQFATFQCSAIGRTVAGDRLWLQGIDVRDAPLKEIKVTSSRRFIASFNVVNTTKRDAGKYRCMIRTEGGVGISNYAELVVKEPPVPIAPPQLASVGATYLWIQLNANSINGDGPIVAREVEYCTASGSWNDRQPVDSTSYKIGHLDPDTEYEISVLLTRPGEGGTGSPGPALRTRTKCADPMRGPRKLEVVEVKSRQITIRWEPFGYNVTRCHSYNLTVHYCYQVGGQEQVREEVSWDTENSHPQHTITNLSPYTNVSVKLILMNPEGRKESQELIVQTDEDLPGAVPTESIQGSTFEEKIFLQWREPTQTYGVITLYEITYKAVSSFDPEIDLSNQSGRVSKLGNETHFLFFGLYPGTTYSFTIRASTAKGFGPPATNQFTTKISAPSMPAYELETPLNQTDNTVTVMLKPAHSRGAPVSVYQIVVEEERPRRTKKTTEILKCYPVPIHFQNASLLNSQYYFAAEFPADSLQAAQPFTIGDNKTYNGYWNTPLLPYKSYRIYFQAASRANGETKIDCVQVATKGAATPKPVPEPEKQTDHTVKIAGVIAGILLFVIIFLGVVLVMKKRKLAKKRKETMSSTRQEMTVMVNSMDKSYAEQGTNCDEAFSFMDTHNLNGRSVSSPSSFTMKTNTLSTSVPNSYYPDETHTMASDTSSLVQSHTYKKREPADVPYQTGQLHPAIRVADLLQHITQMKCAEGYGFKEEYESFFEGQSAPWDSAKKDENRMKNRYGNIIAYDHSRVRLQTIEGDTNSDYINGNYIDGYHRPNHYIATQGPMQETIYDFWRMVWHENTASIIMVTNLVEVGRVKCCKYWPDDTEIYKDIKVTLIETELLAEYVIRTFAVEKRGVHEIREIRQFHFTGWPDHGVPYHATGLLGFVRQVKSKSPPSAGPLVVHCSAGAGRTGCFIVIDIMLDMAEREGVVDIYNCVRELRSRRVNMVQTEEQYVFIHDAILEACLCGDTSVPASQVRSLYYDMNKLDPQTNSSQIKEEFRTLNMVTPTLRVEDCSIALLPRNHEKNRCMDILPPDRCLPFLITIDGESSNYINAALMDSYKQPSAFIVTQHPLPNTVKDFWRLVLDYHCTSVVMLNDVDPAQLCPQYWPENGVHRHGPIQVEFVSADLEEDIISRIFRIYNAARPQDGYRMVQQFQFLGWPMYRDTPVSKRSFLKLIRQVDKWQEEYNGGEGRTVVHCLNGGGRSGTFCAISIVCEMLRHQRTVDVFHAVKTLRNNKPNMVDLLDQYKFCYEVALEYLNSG", "experiment": "Inhibition of HPTP mu"}, "[5]": {"target": "Dual specificity protein phosphatase 3 (Homo sapiens, UniProt P51452)", "sequence (P51452 whole entry)": "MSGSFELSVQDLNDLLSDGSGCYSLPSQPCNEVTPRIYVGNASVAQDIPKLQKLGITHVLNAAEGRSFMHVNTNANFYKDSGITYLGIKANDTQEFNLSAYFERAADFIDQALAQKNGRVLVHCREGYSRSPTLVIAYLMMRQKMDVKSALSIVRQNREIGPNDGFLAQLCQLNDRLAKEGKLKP", "experiment": "Inhibition of VHR"}, "[6]": {"target": "T1, Tyrosine-protein phosphatase non-receptor type 2", "experiment": "Inhibition of TC-PTP38"}, "[7]": {"target": "Receptor-type tyrosine-protein phosphatase epsilon (Homo sapiens, UniProt P23469)", "sequence (P23469 whole entry)": "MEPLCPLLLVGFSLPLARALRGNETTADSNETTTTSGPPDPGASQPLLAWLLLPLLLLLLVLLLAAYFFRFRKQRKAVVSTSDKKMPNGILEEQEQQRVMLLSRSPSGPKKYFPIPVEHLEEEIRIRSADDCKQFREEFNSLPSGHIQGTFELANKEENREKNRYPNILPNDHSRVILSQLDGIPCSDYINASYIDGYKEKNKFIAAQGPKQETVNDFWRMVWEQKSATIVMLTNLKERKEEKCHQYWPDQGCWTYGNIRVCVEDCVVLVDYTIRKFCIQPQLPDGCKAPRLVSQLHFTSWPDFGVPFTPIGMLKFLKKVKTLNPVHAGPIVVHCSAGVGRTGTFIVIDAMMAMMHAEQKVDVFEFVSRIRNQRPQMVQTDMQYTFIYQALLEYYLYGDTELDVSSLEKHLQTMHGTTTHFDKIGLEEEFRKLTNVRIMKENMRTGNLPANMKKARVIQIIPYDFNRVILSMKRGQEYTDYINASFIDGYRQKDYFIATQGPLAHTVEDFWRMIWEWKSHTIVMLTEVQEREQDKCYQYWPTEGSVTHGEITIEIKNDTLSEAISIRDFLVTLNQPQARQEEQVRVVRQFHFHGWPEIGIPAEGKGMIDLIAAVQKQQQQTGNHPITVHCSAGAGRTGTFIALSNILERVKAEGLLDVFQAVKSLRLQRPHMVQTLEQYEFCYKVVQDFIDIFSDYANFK", "experiment": "Inhibition of HPTP epsilon"}},
  "data": [
    {"smiles": "CNC(=O)[C@@H]1Cc2ccc(NS(=O)(=O)O)cc2CN1C(=O)CCc1cccc(NS(=O)(=O)O)c1", "values": [
      {"measurement": "IC50", "setting": "[1]", "value": 9.4, "unit": "µM"},
      {"measurement": "IC50", "setting": "[2]", "value": 203, "unit": "µM"},
      {"measurement": "IC50", "setting": "[3]", "value": "> 500", "unit": "µM"},
      {"measurement": "IC50", "setting": "[4]", "value": "> 500", "unit": "µM"},
      {"measurement": "IC50", "setting": "[5]", "value": 4, "unit": "µM"},
      {"measurement": "IC50", "setting": "[6]", "value": 9.9, "unit": "µM"},
      {"measurement": "IC50", "setting": "[7]", "value": "> 500", "unit": "µM"}
    ]}
  ]
}
